Data on one molecule can be found in patent publication US9809623B2, “α4β7 peptide monomer and dimer antagonists” (Protagonist Therapeutics, Inc., priority 2014, dated 2017).

One data set relates to α4β7 receptor. Nature of the data set: 7 day oral study, FACS receptor occupancy, α4β7 expression and circulating T cells. In kind it is in vivo, cynomolgus monkey. The procedure:
In certain embodiments for FACS analysis, heparinized whole blood from animals *e.g., cyanos) is stained with each of two panels of antibodies to evaluate (1) the extent of α4β7 receptor occupancy in samples treated with a peptide dimer compound or peptide monomer compound described herein; and (2) the abundance of circulating α4β7+, αEβ7+, and α4β7+αEβ7+ lymphocyte subsets. Receptor occupancy and integrin expression are assessed within memory CD4 T cells, naïve CD4 T cells, and B cells. To evaluate receptor occupancy, whole blood samples are first treated with 1 mM MnCl2 to allow peptide binding, and then pre-incubated+/−1 uM unlabeled peptide to fully occupy (i.e., block) the α4β7 receptor. Blocked and unblocked samples were stained with 1 nM Alexa 647-labeled peptide, followed by staining with antibodies against α4β7, CD45, CD4, CD45RA, and CD19. Samples are processed to lyse erythrocytes and fix leukocytes, followed by staining with a second-step reagent (streptavidin-BV421) and wash steps. To assess integrin expression and cell subset abundance, whole blood samples are stained with antibodies against α4, β7, and αE, in addition to antibodies against CD45, CD4, CD45RA, and CD19. Samples are processed to lyse erythrocytes and fix leukocytes, followed by staining with a second-step reagent (streptavidin-BV421) and wash steps. The stained samples are analyzed by flow cytometry, collecting a constant sample volume to allow calculation of absolute cell counts.
To further evaluate the in vivo properties of Peptide X in a higher species, cynomolgus monkeys were dosed with Peptide X for 7 days. Dosing was oral (nasogastric intubation) once daily. Whole blood (about 3.5 mL) was collected on Day 0 (prior to dosing) and Day 6 (1 hour post the last dose) for PK and PD analysis. On Day 6, blood was also collected from a non-dosed animal. For PD, FACS analysis was used to measure receptor occupancy, down-regulation of α4β7 expression and circulating levels of T cells expressing the integrin α4β7.
For FACS analysis, heparinized whole blood from the cynos was stained with each of two panels of antibodies to evaluate (1) the extent of α4β7 receptor occupancy in Peptide X-treated samples and (2) the abundance of circulating α4β7+, αEβ7+, and α4β7+αEβ7+ lymphocyte subsets. Receptor occupancy and integrin expression were assessed within memory CD4 T cells, naïve CD4 T cells, and B cells. To evaluate receptor occupancy, whole blood samples were first treated with 1 mM MnCl2 to allow Peptide X binding, and then pre-incubated+/−1 uM unlabeled Peptide X to fully occupy (i.e., block) the α4β7 receptor. […] All stained samples were analyzed by flow cytometry, collecting a constant sample volume to allow calculation of absolute cell counts.

In data set [1] the test system is C57BL/6 male mice, DSS colitis. In kind it is in vivo. As to the method: Colitis was induced in C57BL/6 male mice (10 animals per group) by exposure to 3% DSS-treated drinking water from day 0 to day 5, when animals were shifted to normal drinking water. Once daily, animal deaths were recorded, and surviving animals were weighed and assessed visually for the presence of diarrhea and/or bloody stool. Immediately prior to sacrifice on day 9, colitis severity was assessed in all animals using video endoscopy, and the resulting images were scored for colitis severity by an observer blinded to group identity.
Starting on day 0, mice were given twice-daily oral doses of either a vehicle/sham control (Group 1) or Peptide X (Group 2: 10 mg/kg, PO, BID). On day 9, only the AM treatment dose was administered. Animals in Group 2 also were administered Peptide X in their drinking water at a concentration of 0.2 mg/mL. The drinking water bottle weights for Groups 1 and 2 were measured, and water consumption was used to estimate the peptide dose ingested via the drinking water. Based on daily water consumption, the average daily Peptide X dose from the combination of oral gavage and drinking water was estimated to be 49 mg/kg.
Mice were sacrificed on day 9, approximately four hours after the final of gavage dose administration. Spleen, Peyer's patches (PP), mesenteric lymph nodes (MLN), and blood were collected from each animal and processed for FACS analysis of α4 and β7 expression on TH memory cells. Takedown and FACS analysis occurred on the same day.
For PK measurements, colon sections from the proximal and distal colon were collected at ˜4 hours after the last AM dose and analyzed by mass spectrometry. Exposure in the proximal colon was approximately 3-fold higher than that in the distal colon (FIG. 12). The concentration of Peptide X in the blood was 84-fold and 31-fold lower compared to that in the proximal and distal colon, respectively. Nonetheless at this time point, the plasma concentration was ˜80-fold greater than the Peptide IC50 value for blocking α4β7 binding to MAdCAM.

Data set [2] deals with C57BL/6 mice, DSS colitis. Nature of the data set: Additional 9 day DSS colitis studies. The format is in vivo, mouse. The procedure:
In this 9 day DSS colitis study, C57BL/6 mice were treated with 3% DSS from Day 1 to Day 6, and switched to normal water until Day 10. Daily dosing was PO BID plus drinking water for Peptide X, and 25 mg/kg IP every 3 days for the anti-α4β7 antibody DATK32. PP and blood were collected and levels of α4β7+ memory T cells analyzed by FACS.

Where [3] appears, read: 10 mg/kg PO BID plus 0.2 mg/mL in drinking water, day 9.

Numbered stars: 1 amine (or outer) side, 2 acyl side, 3 side chain; on linkers, the order of the positions; unused ones are H or OH. Bridge positions count the residues as written; N and C are the ends. Square brackets hold non-standard residues; d marks the D form. Peptide text beside a SMILES is read from it. I, II: the chains in the order shown. ξ: configuration not given here. Phe(4-tBu) = CC(C)(C)c1ccc(C[C@H](N)C(=O)O)cc1; Diglycolyl = O=C(COCC(=O)[*:2])[*:1]; NMeR = CN[C@@H](CCCNC(=N)N)C(=O)O; β3hE = N[C@@H](CCC(=O)O)CC(=O)O; Thr(3ξ) = CC(O)[C@H](N)C(=O)O; Pen = CC(C)(S)[C@H](N)C(=O)O

In the case of `CC(=O)N[C@@H]1C(=O)N(C)[C@@H](CCCNC(=N)N)C(=O)N[C@@H](CO)C(=O)N[C@@H](CC(=O)O)C(=O)N[C@@H](C(C)O)C(=O)N[C@@H](CC(C)C)C(=O)N[C@H](C(=O)N[C@@H](Cc2ccc(C(C)(C)C)cc2)C(=O)N[C@@H](CCC(=O)O)CC(=O)N[C@H](CCCCNC(=O)COCC(=O)NCCCC[C@@H](NC(=O)C[C@H](CCC(=O)O)NC(=O)[C@H](Cc2ccc(C(C)(C)C)cc2)NC(=O)[C@H]2NC(=O)[C@H](CC(C)C)NC(=O)[C@H](C(C)O)NC(=O)[C@H](CC(=O)O)NC(=O)[C@H](CO)NC(=O)[C@H](CCCNC(=N)N)N(C)C(=O)[C@@H](NC(C)=O)C(C)(C)SSC2(C)C)C(N)=O)C(N)=O)C(C)(C)SSC1(C)C` (stereo partly drawn) [Peptide X, [Ac-Pen-(N-Me-Arg)-Ser-Asp-Thr-Leu-Pen-(Phe(4-tBu))-(β-homoGlu)-(D-Lys)]2-DIG] (I: Ac-[Pen][NMeR]SD[Thr(3ξ)]L[Pen][Phe(4-tBu)][β3hE][dK]-NH2 / II: Ac-[Pen][NMeR]SD[Thr(3ξ)]L[Pen][Phe(4-tBu)][β3hE][dK]-NH2; disulfide I:1-I:7, II:1-II:7; linker I:10-II:10 via Diglycolyl), in the data set on α4β7 receptor (all doses, Day 6 vs Day 0), the “α4β7 expression on CD4 memory T cells” value was “decreased at all doses”. Moreover, the EC50 in the data set with α4β7 receptor (by extrapolation, estimated, read-out: plasma concentration sufficient to occupy 50% of the α4β7 receptors in the blood) is approximately 0.35 nM. Further, the “percentage of α4β7+ memory T cells normalized to total CD4 cells” value with α4β7 receptor (cyno blood) is “increase”. The “percent receptor occupancy in blood” value in the data set with α4β7 receptor (highest dose (75 mg/kg/day), oral once daily 7 days, CD4 memory α4β7+ T cells) is listed as “exceeded 90%”. Further, in data set [1] (setting [3]), the “endoscopy score (mean±SD)” value came to 1.78±1.5 and the “reduction of endoscopy scores vs vehicle” value is listed as 32%. Moreover, the “effect on weight loss, fluid intake, colon weight or length, presence of bloody stool and diarrhea” value in data set [1] (10 mg/kg PO BID plus drinking water) is “no significant effect”. Further, the “visual assessment of endoscopy images” value in data set [1] (compared to the vehicle control) is “reduced colonic friability and improved mucosal healing”. The “Exposure in the proximal colon higher than in the distal colon” value in data set [1] (mouse, in vivo) was “approximately 3 fold”. In data set [1] (vs vehicle, day 9), the “decrease in percentage of α4β7+ memory cells relative to total cells in Peyer's Patches” value amounted to 55%, the “decrease in percentage of α4β7+ memory cells relative to total cells in the MLN” value is 23%, the “increase in total α4β7 memory cells per mL blood” value was found to be 42% and the “increase in total α4β7 memory cells recovered from the spleen” value is given as 73%. In addition, in data set [2] (DSS mice orally dosed daily for 9 days), the “body weight loss and mucosal injury as assessed by endoscopy” value was “dose-dependent reduction in body weight loss and mucosal injury”. Besides, the “CD4+CD44highCD45RBlowβ7+ T cells in MLN, Peyer's Patches, spleen and blood” value in data set [2] (DSS mice orally dosed daily for 9 days, FACS) is on record as “dose dependent reduction”. Also, the “α4β7+ T cells in gut lymphoid tissues and blood” value in data set [2] (PO BID plus drinking water) was “reduced α4β7+ T cells in gut lymphoid tissues and redirected them to blood”.
